Assay results from patent publication US20250127806A1, “INJECTABLE LIQUID PHARMACEUTICAL COMPOSITION CONTAINING GEMCITABINE AND A CYTIDINE DEAMINASE INHIBITOR” (ST. JOHN'S UNIVERSITY, priority 2021, published 2025).
Values after ≈ are worked out from the molar mass of the structure shown.

Tests used:
[1] = tested on: MIAPACA-2 xenograft tumors; type: in vivo; conditions: s.c. depot every 3rd day, four doses, Gem 10 mg/kg, Zeb 76 mg/kg
Description: All experiments were done in accordance with the guidelines of the Institutional Animal Care and Use Committee (IACUC) at St John's university. MiaPaca-2 pancreatic cancer cells were maintained in DMEM medium supplemented with 100 U/mL penicillin, 1% streptomycin, 10% fetal bovine serum (FBS), in a humidified 5% CO2 atmosphere at 37° C. After acclimation for 7 days, mice were subcutaneously (s.c.) injected in the right flank with Matrigel (BD Biosciences, San Jose, CA, USA) containing 1.5×10^6 MiaPaca-2 cells. The mice were monitored closely for tumor growth by palpation and visual examination. Palpable and measurable tumors were found beginning 5-7 days after cells were injected. Tumor volume was calculated using the equation: tumor volume=(length×width×height)/2. Once the tumors reached a size of 80-120 mm^3 mice were randomly divided into 4 groups to receive s.c. injection (N=6 in each group) of respective in situ depot formulation.
Total four doses of each formulation were given. A syringe with 27G needle was used to administer 10 ul of depot formulation. Post administration, the syringe was left in the same position for 30 sec in order to obviate the sudden leakage of formulation and to facilitate the gelling of entire volumes of formulations at 37° C. Measurements of tumor size and body weight was taken every alternate day using digital calipers. […]

[2] = Saturation solubility of Gemcitabine free base in various solvents; type: physicochemical; conditions: for solubility: thermodynamic from solid
From the text: In order to select a biocompatible solvent for the development of in situ depot, we carried out saturation solubility of Gemcitabine free base in 12 different organic solvent which are safe to be used for subcutaneous administration in mice. […] However, since NMP is already used in marketed in situ depot formulations and is FDA approved, we used it as a biocompatible solvent to prepare the various polymeric solutions.

SMILES: Nc1ccn([C@@H]2O[C@H](CO)[C@@H](O)C2(F)F)c(=O)n1 [Gemcitabine free base, Gemcitabine]
- Antitumor efficacy (tumor volume) ([1]; FIG. 3(a)): decreased the tumor volume
- Median survival ([1]; FIG. 3(c)): around 18 days
- solubility ([2]; N,N-dimethylacetamide (DMA), organic solvent or mixture, saturation solubility in N,N Dimethylacetamide (DMA)): ~616 mg/mL (≈ 2340 mM)
- solubility ([2]; N-methyl pyrrolidone (NMP), organic solvent or mixture, saturation solubility in N-methyl pyrrolidone (NMP)): ~470 mg/mL (≈ 1790 mM)
- solubility ([2]; diglyme, organic solvent or mixture, saturation solubility in Diglyme): 3.81 ± 0.63 mg/mL (≈ 14.5 mM)
- solubility ([2]; ethyl lactate, organic solvent or mixture, saturation solubility in Ethyl lactate): 18.4 ± 0.34 mg/mL (≈ 69.7 mM)
- solubility ([2]; glycerol formal, organic solvent or mixture, saturation solubility in Glycerol formal): 104 ± 2.03 mg/mL (≈ 397 mM)
- solubility ([2]; isosorbide dimethyl ether, organic solvent or mixture, saturation solubility in Isosorbide dimethyl ether): 8.39 ± 0.4 mg/mL (≈ 31.9 mM)
- solubility ([2]; polyethylene glycol 300, organic solvent or mixture, saturation solubility in Polyethylene glycol 300): 185 ± 13.3 mg/mL (≈ 703 mM)
- solubility ([2]; polyethylene glycol 400, organic solvent or mixture, saturation solubility in Polyethylene glycol 400): 151 ± 2.89 mg/mL (≈ 572 mM)
- solubility ([2]; propylene glycol, organic solvent or mixture, saturation solubility in Propylene glycol): 160 ± 8.29 mg/mL (≈ 609 mM)
- Solubility of Gemcitabine free base ([2]; saturation solubility in N-methyl pyrrolidone (NMP)): 470.70 ± 3.56 mg/mL
- solubility ([2]; solketal, organic solvent or mixture, saturation solubility in Solketal): 17.73 ± 0.008 mg/mL (≈ 67.4 mM)
- solubility ([2]; tetraglycol/glycofurol, organic solvent or mixture, saturation solubility in Tetraglycol/Glycofurol): 129 ± 1.49 mg/mL (≈ 492 mM)
- solubility ([2]; tetrahydrofurfuryl alcohol, organic solvent or mixture, saturation solubility in Tetrahydrofurfuryl alcohol): 221 ± 4.97 mg/mL (≈ 841 mM)
- solubility ([2]; water, saturation solubility in Water): 21.8 ± 1.44 mg/mL (≈ 82.9 mM)
